This is an account of results in US10538475B2, “Amphiphilic cyclobutenes and cylobutanes” (priority 2012, dated 2020).

Read-outs that look alike come from different tables or passages of the source.

One series concerns RAW 264.7 macrophages. The settings on record: cited from earlier work.
Series [1] deals with M. smeg (mc2155). Briefly: MIC by 96-well microplate twofold dilution, M. smeg. The format is cell-based. The following applies: for MIC: M. smeg mc2155, minimal media, 3-4 day; for fold differences between MICs for M. smeg and M. tb: M. smeg vs M. tb.
For a further series, the system named is M. tb (H37Rv). Briefly: MIC by 96-well microplate twofold dilution, M. tb H37Rv. The settings on record: minimal media, 5-7 weeks. The format is cell-based, Mycobacterium tuberculosis.
The test system of a further series is M. tb (CDC1551). Briefly: MIC by 96-well microplate twofold dilution, M. tb CDC1551. Format: cell-based, Mycobacterium tuberculosis. The settings on record: minimal media, 5-7 weeks.
The nature of series [2]: 1D 1H NMR aqueous stability and concentration dependent micelle formation. Format: physicochemical. The settings on record: 100 μM, 500 μM, 750 μM, and 1000 μM; FIG. 2. How it is done:
One-dimensional (1D)^1H-NMR spectroscopy was used to verify the chemical purity, aqueous stability, and concentration dependent micelle formation of eleven fatty acid analogs. Each compound was dissolved in deuterated dimethyl sulfoxide (DMSO-d6) to obtain a stock concentration of 20 mM. Four different concentrations were prepared from the stock solutions for NMR analysis: 1.00 mM, 750 μM, 500 μM, 100 μM. All NMR samples consisted of 600 μL of a deuterated 50 mM potassium phosphate buffer at pH 7.2 with 50 μM of 3 (trimethylsilyl) propionic-2,2,3,3-d4 acid sodium salt (TMSP). Each 600 μL NMR sample contains 30 μL (5%) of DMSO-d6 and was transferred to a 5 mm NMR tube for analysis.
A Bruker Avance DRX 500-MHz spectrometer equipped with a 5 mm triple-resonance cryoprobe (^1H, ^13C, ^15N) with a z-axis gradient was utilized for all 1D ^1H NMR experiments. Acquisition of NMR spectra was automated using a BACS-120 sample changer and Icon NMR software. All spectra were acquired at 298.15 K with 16 dummy scans, 64 scans, 32K data points, a spectral width of 5482.46 Hz, and a relaxation delay of 1.5 s. The NMR spectra were processed and analyzed using ACD/1D NMR Manager (Advanced Chemistry Development). The resulting 1D ^1H NMR spectra were visually inspected for evidence of micelle formation (peak broadening), or chemical instability/impurities (additional peaks). […]

For series [3], the system named is M. smeg (mc2155). The following applies: M. tb vs M. smeg; cited from earlier work.
The mark [4] stands for this setting: highest concentration tested 1024 μg/ml.
The mark [5] stands for this setting: highest concentration tested 256 μg/ml.
The mark [6] stands for this setting: highest concentration tested 1024 μg/ml, read-out: MIC.
The mark [7] stands for this setting: Mycobacterium tuberculosis, H37RV, highest concentration tested 256 μg/ml, read-out: MIC.
Setting [8] is: Mycobacterium tuberculosis, highest concentration tested 256 μg/ml, read-out: MIC.

As to `CCCCCCCC/C=C\CCCCCCCC(=O)O` [oleate, oleic acid], in the series with RAW 264.7 macrophages, the “concentrations displaying some toxicity to this cell line” value is not below 200 µM.

Broadly, the MIC is the least concentration at which growth counts as inhibited. Take `O=C(O)CCCCCCCC1CC(O)C1` (stereo not shown) [Compound 11, 3-(Octanoic acid)cyclobutanol]: the minimum inhibitory concentration (MIC) with M. smeg (mc2155) [1] was approximately 313 µM; with M. smeg (mc2155) [1] (setting [4]) it was 64 µg/mL; in the series on M. smeg (mc2155) [1] (read-out: MIC), 302 µM; in the series on M. tb (H37Rv) (setting [5]), 128 µg/mL; in the series on M. tb (H37Rv) (read-out: MIC) it was 597 µM; against M. tb (CDC1551) (setting [5]) it was 64 µg/mL. In the series on M. tb (CDC1551) (read-out: MIC), the minimal inhibitory concentration (MIC) turned out to be 299 µM.

For the compound “2-Chloro-4-(octanoic acid, 8-yl) 3-octylcyclobutanone-; 2-Chloro-3-(octanoic acid, 8-yl) 4-octylcyclobutanone [Compound 5]”, the MIC in the series with M. smeg (mc2155) [1] (setting [4]) worked out at 256 µg/mL; in the series with M. smeg (mc2155) [1] (read-out: MIC) it was 713 µM; against M. tb (H37Rv) (setting [5]) it was 16 µg/mL; with M. tb (H37Rv) (read-out: MIC) it was 45 µM; with M. tb (CDC1551) (setting [5]), 256 µg/mL; in the series on M. tb (CDC1551) (read-out: MIC), 713 µM.

Turning to “2-(Octanoic acid, 8-yl) 3-octylcyclobutanone and 3-(octanoic acid, 8-yl) 2-octylcyclobutanone [Compound 3]”, the minimal inhibitory concentration (MIC) with M. smeg (mc2155) [1] is approximately 313 µM; in the series on M. smeg (mc2155) [1] (setting [4]) it was 64 µg/mL; with M. smeg (mc2155) [1] (read-out: MIC), 197 µM; in the series on M. tb (H37Rv) (setting [5]), 32 µg/mL; with M. tb (H37Rv) (read-out: MIC), 99 µM; with M. tb (CDC1551) (setting [5]), 64 µg/mL. Further, the minimum inhibitory concentration (MIC) in the series with M. tb (CDC1551) (read-out: MIC) turned out to be 197 µM.

On to `O=C(O)CCCCCCCC1C=CC1` (stereo not shown) [Compound 8, 8-(2-Cyclobuten-1-yl)-octanoic acid], for which the “micelle formation (peak broadening relative to TMSP)” value in series [2] is “No micelle formation”. The MIC with M. smeg (mc2155) [1] (setting [6]) turned out to be 64 µg/mL; with M. smeg (mc2155) [1] (read-out: MIC), 326 µM; in the series on M. tb (H37Rv) (setting [7]), 4 µg/mL; with M. tb (CDC1551) (setting [8]) it was 4 µg/mL. Besides, the “fold differences between MICs for M. smeg and M. tb” value (from here on “fold differences between MICs”) in the series on M. smeg (mc2155) [1] is listed as “five to ten”.

For the compound `CCCCCCCC[C@H]1CC[C@H]1CCCCCCCC(=O)O` (relative stereo) [Compound 2, cis-9,10-Ethanooctadecanoic acid], the MIC was approximately 313 µM in the series with M. smeg (mc2155) [1]; 64 µg/mL in the series on M. smeg (mc2155) [1] (setting [4]); 206 µM in the series on M. smeg (mc2155) [1] (read-out: MIC); 16 µg/mL against M. tb (H37Rv) (setting [5]); 52 µM in the series with M. tb (H37Rv) (read-out: MIC); 8 µg/mL in the series with M. tb (CDC1551) (setting [5]). The “fold differences between MICs” value in the series on M. smeg (mc2155) [1] is on record as “five to ten”.

In the case of `NNC(=O)c1ccncc1` [Isoniazid], the “fold more potent inhibition of M. tb compared with M. smeg” value in the series with M. smeg (mc2155) [3] is reported as 100 fold.

As for `N[C@@H]1CONC1=O` [DCS, D-cycloserine, reference compound], the MIC with M. smeg (mc2155) [1] (setting [4]) worked out at 75 µg/mL; with M. smeg (mc2155) [1] (read-out: MIC), 313 µM; in the series on M. tb (H37Rv) (setting [5]), 12.5 µg/mL; in the series with M. tb (H37Rv) (read-out: MIC) it was 122 µM; against M. tb (CDC1551) (setting [5]), 12.5 µg/mL; in the series on M. tb (CDC1551) (read-out: MIC) it was 122 µM.

Regarding “2-(Octanoic acid, 8-yl) 3-octylcyclobutanol and 3-(Octanoic acid, 8-yl) 2-octylcyclobutanol [Compound 4]”, the MIC in the series with M. smeg (mc2155) [1] (setting [4]) worked out at 256 µg/mL; with M. smeg (mc2155) [1] (read-out: MIC), 784 µM; with M. tb (H37Rv) (setting [5]), 2 µg/mL; in the series with M. tb (CDC1551) (setting [5]), 8 µg/mL. Also, in the series with M. smeg (mc2155) [1], the “fold differences between MICs” value is reported as “five to ten”.

On to `CCCCCCCCC1=C(CCCCCCCC(=O)O)CC1` [Compound 6, 1-(Octanoic acid, 8-yl)-2-octylcyclobutene], for which the minimum inhibitory concentration (MIC) against M. smeg (mc2155) [1] (setting [4]) came out at 256 µg/mL; in the series with M. smeg (mc2155) [1] (read-out: MIC), 830 µM; with M. tb (H37Rv) (setting [5]), 16 µg/mL; in the series with M. tb (H37Rv) (read-out: MIC), 52 µM; in the series with M. tb (CDC1551) (setting [5]), 128 µg/mL; in the series on M. tb (CDC1551) (read-out: MIC) it was 415 µM. The “fold differences between MICs” value in the series with M. smeg (mc2155) [1] was “five to ten”.

As for `O=C(O)CCCCCCCC1CCC1` [Compound 9, 8-Cyclobutyloctanoic acid], the MIC in the series on M. smeg (mc2155) [1] (setting [6]) was determined as 128 µg/mL; in the series with M. smeg (mc2155) [1] (read-out: MIC), 645 µM; in the series with M. tb (H37Rv) (setting [7]), 4 µg/mL; in the series with M. tb (CDC1551) (setting [8]), 4 µg/mL. For the same compound, in the series with M. smeg (mc2155) [1], the “fold differences between MICs” value is “five to ten”.

Regarding `CCCCCCCCCC(=O)O` [Decanoic acid (DA), Decanoic acid, reference compound], the MIC in the series on M. smeg (mc2155) [1] (setting [6]) stood at 128 µg/mL; with M. smeg (mc2155) [1] (read-out: MIC), 752 µM; in the series with M. tb (H37Rv) (setting [7]), 32 µg/mL; in the series with M. tb (H37Rv) (Mycobacterium tuberculosis, H37RV, read-out: MIC), 188 µM; with M. tb (CDC1551) (setting [8]) it was 32 µg/mL; with M. tb (CDC1551) (Mycobacterium tuberculosis, read-out: MIC), 188 µM.

Consider `O=C(O)CCCCCCCC1CC(=O)C1` [Compound 10, 3-(Octanoic acid, 8-yl)cyclobutanone], for which the MIC in the series on M. smeg (mc2155) [1] (setting [4]) is 128 µg/mL; with M. smeg (mc2155) [1] (read-out: MIC) it was 603 µM; against M. tb (H37Rv) it was 1,206 μM; against M. tb (H37Rv) (setting [5]) it was 256 µg/mL; against M. tb (CDC1551) (setting [5]) it was 128 µg/mL; in the series on M. tb (CDC1551) (read-out: MIC), 603 µM.
